Source: PubChem BioAssay AID504760 (National Center for Advancing Translational Sciences (NCATS), 2011)

Test system: mouse plasma stability, LC-MS/MS, 48 h
Test: Inhibitors of Cruzain: Mouse Plasma Stability Profiling
Conditions: at 2 µM; active compounds read high
From the text: Chagas Disease is a neglected tropical disease that affects over 16 million people in Latin America. The cysteine protease cruzain is essential for the survival Trypanosoma cruzi, the parasitic agent responsible for Chagas disease. Potential intervention for T. cruzi includes the inhibition of cruzain. This bioassay will summarize the ongoing development of small molecule cruzain inhbitiors. Currently, a screen of ~200k compounds and through extensive follow-up work a probe was identified. To further characterize the probe, it was tested in in vitro ADME assays. The stability of the lead compound in mouse plasma is tested because this parameter has a significant impact on many ADME-concerned properties of drugs, such as uptake, distribution, transport, and bioavailability. NIH Chemical Genomics Center [NCGC] NIH Molecular Libraries Probe Production Centers Network [MLPCN] MLSCN Grant: DA024891-01 PI Name: Dr. Brian Shoichet; University of California, San Francisco
2uM of compound is incubated in mouse plasma; the reference compound is procaine. Compounds are incubated at 37 deg C for the pre-determined time periods and the when aliquots are removed. Samples are analyzed with LC-MS/MS.

percent remaining: 95%
Compound: Cc1ccc(OCCn2c(CCNC(=O)C3CCCCC3)nc3ccccc32)cc1
